Laboratory results from ChEMBL document CHEMBL1152066, “7,10-Bis(2-mercapto-2-methyl)propyl-7,10-diazapalmitic acid: a novel, N2S2 ligand for technetium-99m” (Bioorg Med Chem Lett, 1996).
“And” between values parts separate entries of the source, which are not always exact repeats. Equal values may be shown once.

Columns and labels:
Type in all cases: ADME, organism-based
Settings in all cases: in vivo
[1] = test system: Rattus norvegicus; experiment: Distribution of radioactivity in kidney of fasted rats following concomitant intravenous administration of [99mTc]7. value expressed as % injected dose / organ
[2] = test system: Rattus norvegicus; experiment: Distribution of radioactivity in lung of fasted rats following concomitant intravenous administration of [99mTc]7. value expressed as % injected dose / organ
[3] = test system: Rattus norvegicus; experiment: (§1) Distribution of radioactivity in stomach of fasted rats following concomitant intravenous administration of [99mTc]7. value expressed as % injected dose / organ
[4] = test system: Rattus norvegicus; experiment: Distribution of radioactivity in heart of fasted rats following concomitant intravenous administration of [99mTc]-7. value expressed as % injected dose / organ
[5] = test system: Rattus norvegicus; experiment: Distribution of radioactivity in spleen of fasted rats following concomitant intravenous administration of [99mTc]-7. value expressed as % injected dose / organ
[6] = test system: Rattus norvegicus; experiment: as §1; remark: listed apart in the source

Injected dose/organ [1] | Injected dose/organ [2] | Injected dose/organ [3] | Injected dose/organ [4] | Injected dose/organ [5] | Injected dose/organ [6] | Structure (SMILES)
3.42% and 1.18% | 1.19% and 0.73% | 0.27% and 0.18% | 0.22% and 0.56% | 0.7% and 0.78% | – | CCCCCCN(CCN(CCCCCC(=O)O)CC(C)(C)S)CC(C)(C)S
2.07% and 0.71% | 1.25% and 0.77% | 0.27% | 1.86% and 2.94% | 0.54% and 0.57% | 0.42% | O=C(O)CCCCCCCCCCCCCCc1ccc([125I])cc1
